Data set [1] has as its target Cyp3A4 (Homo sapiens, UniProt P08684). In words: Cyp reversible inhibition assay (human liver microsomes). The method, then:
The purpose of this assay was to determine reversible inhibition of Cyp enzyme with a given compound using a substrate probe turnover as the surrogate for inhibition. This was done with human liver microsomes rather an isolated enzyme to account for metabolites of parent drug leading to a potential drug-drug interaction through Cyp inhibition. The substrate turnover (for example conversion of midazolam to hydroxyl midazolam) was monitored by LCMSMS (Q1/Q2=342.2/203.2). Test compounds were tested in a 7-point dose response curve starting from 50 μM to 50 nM (˜3-fold dilution series).
The detailed protocol was as follows: • Prepared test compounds and standard inhibitors working solution (100×) • Pulled microsomes out of the −80° C. freezer to thaw on ice, labeled with the date and put back to freezer immediately after using. • Added 20 μL of the substrate solutions to corresponding wells. • Added 20 μL PB to Blank wells. • Added 2 μL of the test compounds and positive control working solution to corresponding wells. • Added 2 μL MeOH to No Inhibitor wells and Blank wells. • Prepared HLM working solution. • Added 158 μL of the HLM working solution to all wells of incubation plate. • Pre-warmed the plate for about 10 min at 37° C. water bath. • Prepared NADPH cofactor solution. • Added 20 μL NADPH cofactor to all incubation wells. • Mixed and incubated for 10 minutes at 37° C. water bath. • At the time point, terminated the reaction by adding 400 μL cold stop solution (200 ng/mL Tolbutamide in ACN). • Centrifuged the samples at 4000 rpm for 20 minutes to precipitate protein. • Transferred 200 μL supernatant to 200 μL HPLC water and shook for 10 min. • Analyzed samples by LC/MS/MS.
A general note: Liver microsomes are a subcellular fraction often used to study metabolism.

In data set [2] the target is T1, PXR (Homo sapiens, UniProt O75469).
T1 construct: expressed in transfected cells; host or cells: DPX2 cells
T1 sequence (O75469 1-434): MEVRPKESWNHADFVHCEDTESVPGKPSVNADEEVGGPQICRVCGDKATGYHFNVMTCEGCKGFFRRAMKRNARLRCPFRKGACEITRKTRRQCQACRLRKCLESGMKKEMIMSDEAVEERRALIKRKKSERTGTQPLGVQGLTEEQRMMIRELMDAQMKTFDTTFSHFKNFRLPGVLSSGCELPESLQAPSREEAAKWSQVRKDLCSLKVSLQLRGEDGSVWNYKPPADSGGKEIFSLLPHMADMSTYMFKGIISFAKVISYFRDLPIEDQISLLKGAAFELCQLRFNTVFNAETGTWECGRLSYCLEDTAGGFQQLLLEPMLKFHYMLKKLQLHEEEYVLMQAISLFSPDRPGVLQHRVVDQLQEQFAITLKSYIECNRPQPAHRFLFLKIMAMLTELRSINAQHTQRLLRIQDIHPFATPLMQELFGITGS
In words: PXR (Cyp 3A4) activation assay in DPX2 cells. The data set is classed as cell-based. To be noted: compounds tested at 10, 1 and 0.1 μM, read-out: PXR activation (fold induction compared to Rifampicin). On the procedure: CYP3A4 metabolism was evaluated by using P450-Glo™ CYP3A4 Assay with Luciferin-IPA as the substrate of CYP3A4 and represented as RLU (Relative Luminescence Units). PXR activation was evaluated by using a luciferase detection reagent, ONE-Glo™ and represented as RLU. The luminescence light intensity was directly proportional to the extent of PXR activation and accompanying gene transcription in the DPX2 cells. Compounds were tested at 10, 1, and 0.1 μM in the assay. Fold of induction=(RLU/RFU of compound treated sample)/(RLU/RFU of vehicle treated sample), RFU was the signal of cell viability. RLU was the signal of CYP3A metabolism and PXR activation. 0.1% DMSO was used as vehicle. Cell viability was detected by using CellTiter-Fluor™ and represented as RFU (Relative Fluorescence Units).
Activation potency was defined as negative, weak, moderate and strong. Negative, weak, moderate and strong activators are those that give <15%, <40%, <69% and >70%, respectively, of the response produced by 10 μM RIF at 10 μM.

Data set [3] relates to Candida albicans (ATCC 10231). Briefly: Candida albicans anti-fungal MIC potency determination. The data set is classed as cell-based. The method, then: The wild type Candida albicans (ATCC 10231) was used and Fluconazole, amphotericin B, itraconazole and terbinafine were purchased from Sigma and used as positive controls.
The highest assay concentration for all test compounds and fluconazole was 100 μM. Fluconazole was also tested at the highest concentration of 64 μg/ml, and amphotercin B and terbinafine at 16 and 64 μg/ml. The test compounds were in DMSO stock solution at a concentration of 10 mM. Two stock solutions in DMSO were prepared for fluconazole at 10 mM and 6.4 mg/ml. Amphotericin B and terbinafine stock solutions in DMSO were prepared at 1.6 and 6.4 mg/ml.
Serial dilution of 100× stock solutions: 4 μl of stock solution was added into 196 μl of RPMI1640 (MOPS buffered and free of HEPES and sodium bicarbonate) in the first well of a row of a sterile u-bottom 96-well plate. The rest of the wells was filled with 100 μl RPMI1640. The 2-fold serial dilution was made sequentially by transferring 100 μl solution to the next well and mixing by pipetting, until 11th well. The extra 100 μl in 11th well was discarded. Therefore, the compound wells contained 100 μl of 2× of testing concentrations of drugs in RPMI1640. The 12th well was filled with only 100 μl RPMI1640.
C. albicans 3147 (ATCC 10231) glycerol frozen stock was streaked on Sabouraud dextrose agar (SDA). The plate was incubated at 35° C. ambient atmosphere for 20 h. Single colonies were suspended into sterile saline until turbidity reached 0.1 (1-5×10^6 CFU/ml) using a Siemens turbidity meter. This suspension was diluted 50× in RPMI1640 in a 15 ml conical, and then it was further diluted 20× in RPMI1640 in a 50 ml conical. This gave 1-5×10^3 CFU/ml suspension and was used as inoculum. The cell density in inoculum was plate-counted to be 4.94×10^3 CFU/ml.
The plates were incubated at 35° C. in ambient atmosphere. The photos were taken at 24 h and 48 h. The MIC end points for fluconazole and amphotericin B were read according to the M27-A3 protocol (Reference Method for Broth Dilution Antifungal Susceptibility Testing of Yeasts; Approved Standard-Third Edition, M27-A3 standard published Jan. 1, 2008 by Clinical and Laboratory Standards Institute). The MIC for compounds for test cmpds and terbinafine (not mentioned in M27-A3 protcol) were read as if they were azoles.

The mark [4] stands for this setting: Cyp 3A4 midazolam LCMS IC50, human liver microsomes, substrate midazolam.
[5] abbreviates: Cyp 3A4 testosterone LCMS IC50, human liver microsomes, substrate testosterone.
Setting [6] is: ATCC10231, 24 h, read-out: C. Albicans MIC90 at 24 h.
[7] abbreviates: ATCC10231, 48 h, read-out: C. Albicans MIC90 at 48 h.

Each structure is given as a SMILES string. Where two headings read alike, the source gives them in different places.

Usually IC50 stands for the concentration that inhibits the measured activity by half. A low value points to greater potency in that assay. Usually MIC90 stands for the lowest concentration that inhibits either 90% of growth or 90% of the strains tested, depending on the study.

Chain of Cyp3A4 (P08684 whole entry): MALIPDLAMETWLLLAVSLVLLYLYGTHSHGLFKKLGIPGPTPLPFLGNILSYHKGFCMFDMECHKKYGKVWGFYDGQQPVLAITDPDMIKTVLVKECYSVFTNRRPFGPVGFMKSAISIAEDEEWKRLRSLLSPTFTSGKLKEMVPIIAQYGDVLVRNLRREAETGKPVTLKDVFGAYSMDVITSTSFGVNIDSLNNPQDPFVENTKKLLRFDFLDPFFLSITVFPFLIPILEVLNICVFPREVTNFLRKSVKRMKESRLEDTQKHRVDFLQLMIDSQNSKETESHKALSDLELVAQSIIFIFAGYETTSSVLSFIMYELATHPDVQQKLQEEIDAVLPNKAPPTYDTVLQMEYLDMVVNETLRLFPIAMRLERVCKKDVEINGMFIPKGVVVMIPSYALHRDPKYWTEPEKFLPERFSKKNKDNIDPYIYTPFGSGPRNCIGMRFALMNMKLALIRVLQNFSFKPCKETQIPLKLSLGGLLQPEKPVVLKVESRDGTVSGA

As to `CCC(C)n1ncn(-c2ccc(N3CCN(c4ccc(OC[C@@H]5CO[C@@](Cn6nccn6)(c6ccc(Cl)cc6Cl)O5)cc4)CC3)cc2)c1=O` (stereo partly drawn) [Compound 15], the half-maximal inhibitory concentration (IC50) in data set [1] (setting [4]) and in data set [1] (setting [5]) was above 50 µM each time. In data set [2], the fold induction is around 1. Further, the MIC90 in data set [3] (setting [6]) and in data set [3] (setting [7]) was above 100 µM throughout.

With `CCC(C)n1ncn(-c2ccc(N3CCN(c4ccc(OC[C@@H]5CO[C@@](Cc6ccnnc6)(c6ccc(Cl)cc6Cl)O5)cc4)CC3)cc2)c1=O` (stereo partly drawn) [Compound 22], the IC50 in data set [1] (setting [4]) and in data set [1] (setting [5]) was above 50 µM in each case. In addition, in data set [2], the fold induction was around 1.1. The MIC90 in data set [3] (setting [6]) and in data set [3] (setting [7]) was above 100 µM each time.

For the compound `CCC(C)n1ncn(-c2ccc(N3CCN(c4ccc(OC[C@@H]5CO[C@@](Cn6nccn6)(c6ccccc6)O5)cc4)CC3)cc2)c1=O` (stereo partly drawn) [Compound 42], the concentration for half-maximal inhibition (IC50) in data set [1] (setting [4]) and in data set [1] (setting [5]) was above 50 µM throughout. Besides, in data set [2], the fold induction was around 1.5. For the same compound, the MIC90 in data set [3] (setting [6]) and in data set [3] (setting [7]) was above 100 µM each time.

For the origin of these results see patent US9981956B2, “Small molecule inhibitors of fibrosis” (THE CALIFORNIA INSTITUTE FOR BIOMEDICAL RESEARCH, priority 2013, dated 2018).
